Among the data in patent US12357603B2, “Acyl sulfonamides for treating cancer” (Bayer Aktiengesellschaft, priority 2019, dated 2025) are IC50 and EC50 values, retold here.

The subject of test [1] is ESR1 transcription (luciferase signal in MVLN cells). Kind of test: Repression of ESR1 transcription, luciferase reporter in MVLN cells. The test is classed as cell-based. Conditions: Homo sapiens, MVLN, inhibition of luciferase signal in MVLN cells; arithmetic mean. The gist of the method: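 MVLN cells (constitutive ER, stably carrying a Vitellogenin A2 hormone-responsive element–luciferase reporter) treated in duplicate; luciferase read after 24 h. Cell density checked by Alamar Blue fluorescence (530/590 nm) after 2 h to exclude cell-loss effects.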

Another test deals with ZR-75-1 cells. The test can be described thus: Proliferation assay ZR-75-1 (Alamar Blue, 144 h). The test is classed as cell-based. Conditions: Homo sapiens, ZR-75-1, 144 h, arithmetic mean, read-out: ZR75-1 proliferation assay, EC50 [M] (arithmetic mean). The essentials: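 Cells seeded at 3000/well in RPMI 1640 with 2.5% FBS and treated 24 h later across 2.0×10E-5 to 2.0×10E-9 M (9 dilutions, 0.2% DMSO, triplicate). After 144 h at 37 °C, 5% CO2, viability read by Alamar Blue fluorescence at 590 nm following 2 h reagent incubation.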

The test system of the next test is MDA-MB-436 cells. The test can be described thus: Proliferation assay MDA-MB-436, negative control cell line (Alamar Blue, 144 h). In kind it is cell-based. The conditions noted are these: Homo sapiens, MDA-MB-436, 144 h, arithmetic mean. The essentials:
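MDA-MB-436 cells (3000/well, DMEM/Ham's F12 with 2.5% FBS) treated 24 h after plating with compounds at 2.0×10E-5 to 2.0×10E-9 M (9 dilutions, 0.2% DMSO), triplicates, 144 h at 37 °C, 5% CO2. Viability by Alamar Blue, 2 h, fluorescence at 590 nm.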

The target in test [2] is Recombinant human His-tagged Kat6a protein (amino acids 194-810) (Homo sapiens (Human), UniProt Q92794). Kind of test: Kat6a activity assay (TR-FRET, acetylation of biotinylated Histone-H4-derived peptide). The test is classed as biochemical. The conditions noted are these: 60 mins at 22° C., read-out: KAT6A-DPF/HAT domain IC50 [mol/l] (arithmetic mean). The essentials:
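Sf9-expressed human His-Kat6a (aa 194-810) incubated 60 min at 22 °C with compounds (0.01-20 μM) in Tris pH 8 buffer containing 220 nM biotinylated H4 peptide (aa 1-24) and 600 nM acetyl-CoA. Acetyl-K8 detected by TR-FRET (665/620 nm ratio); IC50 by four-parameter fit versus DMSO controls.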

The structures appear in SMILES notation. Where only a bound is given, the exact number is not on record here.

Chain of Recombinant human His-tagged Kat6a protein (amino acids 194-810) (Q92794 194-810): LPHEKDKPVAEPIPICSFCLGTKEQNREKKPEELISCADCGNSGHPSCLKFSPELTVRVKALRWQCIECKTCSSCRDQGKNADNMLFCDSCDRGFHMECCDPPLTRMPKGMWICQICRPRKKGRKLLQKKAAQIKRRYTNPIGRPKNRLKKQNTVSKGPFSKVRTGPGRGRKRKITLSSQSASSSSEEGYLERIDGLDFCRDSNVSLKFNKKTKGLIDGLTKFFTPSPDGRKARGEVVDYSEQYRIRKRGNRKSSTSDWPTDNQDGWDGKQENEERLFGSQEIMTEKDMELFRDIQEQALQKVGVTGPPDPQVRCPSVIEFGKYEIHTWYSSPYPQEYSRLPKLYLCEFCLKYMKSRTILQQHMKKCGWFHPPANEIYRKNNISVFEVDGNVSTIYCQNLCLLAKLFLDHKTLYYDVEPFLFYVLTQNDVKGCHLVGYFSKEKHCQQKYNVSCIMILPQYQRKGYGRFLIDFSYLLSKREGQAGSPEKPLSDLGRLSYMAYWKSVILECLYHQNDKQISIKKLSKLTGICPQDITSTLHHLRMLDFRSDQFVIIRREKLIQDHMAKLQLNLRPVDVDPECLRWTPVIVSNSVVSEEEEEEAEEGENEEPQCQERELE

`CC1CCCN1c1ccc2cc(C(=O)NS(=O)(=O)c3ccccc3-c3ccccc3)oc2c1` (racemic) [Example 44, N-([1,1′-Biphenyl]-2-sulfonyl)-6-[2-methylpyrrolidin-1-yl]-1-benzofuran-2-carboxamide (rac)]: the values for the IC50 in test [1] and in test [2] were above 20000 nM and 3170 nM, respectively. In addition, the EC50 in the test on ZR-75-1 cells was above 2e-05 M; in the test on MDA-MB-436 cells it was above 20000 nM.
On to `COc1cc(S(=O)(=O)NC(=O)c2cc3ccc(N(C)C)cc3o2)cc(Cn2cccn2)c1OC` [Example 103, N-{3,4-Dimethoxy-5-[(1H-pyrazol-1-yl)methyl]benzene-1-sulfonyl}-6-(dimethylamino)-1-benzofuran-2-carboxamide], for which the IC50 in test [1] came to 2950 nM; in test [2], 1210 nM. For the same compound, the EC50 in the test on ZR-75-1 cells was 2.6e-06 M; in the test on MDA-MB-436 cells, above 20000 nM.
Take `CN(C)c1cc2oc(C(=O)NS(=O)(=O)c3ccccc3-c3ccccc3)cc2cc1Cl` [Example 189, N-([1,1′-biphenyl]-2-ylsulfonyl)-5-chloro-6-(dimethylamino)benzofuran-2-carboxamide]: the IC50 in test [1] was 6480 nM; in test [2] it was 2440 nM. For the same compound, the EC50 was above 2e-05 M with ZR-75-1 cells and above 20000 nM in the test with MDA-MB-436 cells.
In the case of `CN(C)c1cc2oc(C(=O)NS(=O)(=O)c3ccccc3-c3ccccc3)cc2cc1F` [Example 199, N-([1,1′-biphenyl]-2-ylsulfonyl)-6-(dimethylamino)-5-fluorobenzofuran-2-carboxamide], the results for the IC50 in test [1] and in test [2] were 9400 nM and 2650 nM, respectively. Moreover, the results for the EC50 in the test with ZR-75-1 cells and in the test on MDA-MB-436 cells were above 2e-05 M and above 20000 nM, respectively.
Regarding `CCc1ccc(Cn2cccn2)cc1S(=O)(=O)NC(=O)c1cc2ccc(N(C)C)cc2o1` [Example 102, 6-(Dimethylamino)-N-{2-ethyl-5-[(1H-pyrazol-1-yl)methyl]benzene-1-sulfonyl}-1-benzofuran-2-carboxamide], the IC50 in test [1] stood at 1470 nM; in test [2], 489 nM. Besides, the EC50 in the test with ZR-75-1 cells is 1.95e-06 M; in the test with MDA-MB-436 cells, above 20000 nM.
The like results for `CCCCOc1ccccc1S(=O)(=O)NC(=O)c1cc2ccc(N(C)CCOC)cc2o1` [Example 219, N-(2-butoxybenzene-1-sulfonyl)-6-[(2-methoxyethyl)(methyl)amino]-1-benzofuran-2-carboxamide] were, in that order, 4060 nM, 1280 nM, 6.05e-06 M and above 20000 nM.
`CCOc1ccccc1S(=O)(=O)NC(=O)c1cc2cc(C)c(N(C)C)cc2o1` [Example 200, 6-(Dimethylamino)-N-(2-ethoxybenzene-1-sulfonyl)-5-methyl-1-benzofuran-2-carboxamide]: the IC50 in test [1] was above 20000 nM; in test [2] it was 6740 nM. Further, the figures for the EC50 in the test with ZR-75-1 cells and with MDA-MB-436 cells were above 2e-05 M and above 20000 nM, respectively.
Turning to `CCc1ncnc(OC)c1S(=O)(=O)NC(=O)c1cc2ccc(N(C)C)cc2o1` [Example 131, 6-(Dimethylamino)-N-(4-ethyl-6-methoxypyrimidine-5-sulfonyl)-1-benzofuran-2-carboxamide], the IC50 in test [1] came to 325 nM; in test [2] it was 470 nM. The EC50 was 8.31e-07 M in the test with ZR-75-1 cells and above 20000 nM with MDA-MB-436 cells.
Regarding `Cc1ccc(S(=O)(=O)NC(=O)c2cc3ccc(N(C)C)cc3o2)c(N)n1` [Example 130, N-(2-Amino-6-methylpyridine-3-sulfonyl)-6-(dimethylamino)-1-benzofuran-2-carboxamide], the IC50 in test [1] was found to be 4360 nM; in test [2], 2180 nM. Besides, the EC50 in the test on ZR-75-1 cells was 2.93e-06 M; in the test with MDA-MB-436 cells, 15100 nM.
Consider `CN(C)c1ccc2cc(C(=O)NS(=O)(=O)c3cc(Br)cnc3Cl)oc2c1` [Example 136], for which the IC50 in test [1] was determined as 15400 nM; in test [2], 796 nM. In addition, the EC50 in the test with ZR-75-1 cells is 5.54e-06 M; with MDA-MB-436 cells it was above 20000 nM.
In the case of `CN(C)c1ccc2cc(C(=O)NS(=O)(=O)c3ccccc3-c3ccccc3)oc2c1Br` [Example 203, N-([1,1′-biphenyl]-2-sulfonyl)-7-bromo-6-(dimethylamino)-1-benzofuran-2-carboxamide], the IC50 was above 20000 nM in test [1] and 8380 nM in test [2]. The values for the EC50 in the test on ZR-75-1 cells and with MDA-MB-436 cells were above 2e-05 M and above 20000 nM, respectively.
For `CN1Cc2cccc(S(=O)(=O)NC(=O)c3cc4ccc(N(C)C)cc4o3)c2C1=O` [Example 95, 6-(Dimethylamino)-N-(2-methyl-3-oxo-2,3-dihydro-1H-isoindole-4-sulfonyl)-1-benzofuran-2-carboxamide], the IC50 is 488 nM in test [1] and 150 nM in test [2]. In addition, the EC50 in the test on ZR-75-1 cells is 7.18e-07 M; with MDA-MB-436 cells it was above 20000 nM.
For the compound `CN(C)c1ccc2cc(C(=O)NS(=O)(=O)c3ccccc3OC(F)(F)C(F)(F)F)oc2c1` [Example 96, 6-(Dimethylamino)-N-[2-(pentafluoroethoxy)benzene-1-sulfonyl]-1-benzofuran-2-carboxamide], the IC50 was found to be 556 nM in test [1] and 260 nM in test [2]. The EC50 was 1e-06 M in the test on ZR-75-1 cells and above 20000 nM with MDA-MB-436 cells.
As for `COc1ccc(S(=O)(=O)NC(=O)c2cc3ccc(N(C)C)cc3o2)cn1` [Example 152, 6-(Dimethylamino)-N-(6-methoxypyridine-3-sulfonyl)-1-benzofuran-2-carboxamide], the IC50 was 2930 nM in test [1] and 1400 nM in test [2]. For the same compound, the EC50 is 2.16e-06 M with ZR-75-1 cells and above 20000 nM in the test on MDA-MB-436 cells.
Turning to `CCOc1ccccc1S(=O)(=O)NC(=O)c1cc2ccc(N(C)C)c(F)c2o1` [Example 191, 6-(Dimethylamino)-N-((2-ethoxyphenyl)sulfonyl)-7-fluorobenzofuran-2-carboxamide], the IC50 in test [1] turned out to be 11200 nM; in test [2], 4700 nM. For the same compound, the values for the EC50 in the test with ZR-75-1 cells and with MDA-MB-436 cells were 5.64e-06 M and above 20000 nM, respectively.
`CN(C)c1ccc2cc(C(=O)NS(=O)(=O)c3ccccc3)oc2c1` [Example 99, N-(benzenesulfonyl)-6-(dimethylamino)-1-benzofuran-2-carboxamide]: the results for the IC50 in test [1] and in test [2] were 672 nM and 645 nM, respectively. The EC50 with ZR-75-1 cells is 6.63e-07 M; in the test with MDA-MB-436 cells, above 20000 nM.
Regarding `Cc1cc(Cn2cccn2)cc(S(=O)(=O)NC(=O)c2cc3ccc(N(C)C)cc3o2)c1C` [Example 100], the IC50 stood at 974 nM in test [1] and 177 nM in test [2]. Besides, the EC50 is 1.12e-06 M in the test with ZR-75-1 cells and above 20000 nM in the test on MDA-MB-436 cells.
As to `Cc1ccc2cccc(S(=O)(=O)NC(=O)c3cc4c(F)cc(N(C)C)cc4o3)c2n1` [Example 108, 6-(Dimethylamino)-4-fluoro-N-(2-methylquinoline-8-sulfonyl)-1-benzofuran-2-carboxamide], the IC50 in test [1] was 9.1 nM; in test [2], 4.6 nM. The figures for the EC50 in the test on ZR-75-1 cells and in the test on MDA-MB-436 cells were 8.07e-08 M and above 18600 nM, respectively.
Taken in the same sequence, the figures for `Cc1cccc(Nc2ccncc2S(=O)(=O)NC(=O)c2cc3ccc(N(C)C)cc3o2)c1` [Example 151, 6-(Dimethylamino)-N-[4-(3-methylanilino)pyridine-3-sulfonyl]-1-benzofuran-2-carboxamide] were 9850 nM, 234 nM, 2.87e-06 M and above 20000 nM.
On to `CCNc1ccc2cc(C(=O)NS(=O)(=O)c3cccc4ccc(C)nc34)oc2c1` [Example 220, 6-(Ethylamino)-N-(2-methylquinoline-8-sulfonyl)-1-benzofuran-2-carboxamide], for which the IC50 in test [1] was 716 nM; in test [2] it was 188 nM. In addition, the EC50 in the test on ZR-75-1 cells is 8.91e-07 M; with MDA-MB-436 cells it was above 20000 nM.
